According to article PMC4317859 (Cancer Science, 2014):

Legend:
[1] = Pharmacokinetics in nude mice; type: in vivo; settings: from human plasma AUC and pharmacokinetic parameters in nude mice
SK-BR-3 (breast) = test: Growth inhibition assay; type: cell-based; settings: Homo sapiens, SK-BR-3, 72 h, read-out: IC50, growth inhibition of cultured cells
BT-474 cells = test: Survival model, intracranial implantation; type: in vivo, mice; settings: 200 mg/kg, oral daily
[2] = clinical dose 1200–1250 mg, once daily; cited from earlier work
MDA-MB-453 (breast) = test: Growth inhibition assay; type: cell-based; settings: Homo sapiens, MDA-MB-453, 72 h, read-out: IC50, growth inhibition of cultured cells
MRC-5 (lung) = test: Growth inhibition assay; type: cell-based; settings: Homo sapiens, MRC5, 72 h, read-out: IC50, growth inhibition of cultured cells
NCI-N87 cells = test: Growth inhibition in the presence of human serum protein; type: cell-based; settings: serum albumin or α1-acid glycoprotein vs standard medium
Calu-3 (lung) = test: Growth inhibition assay; type: cell-based; settings: Homo sapiens, Calu-3, 72 h, read-out: IC50, growth inhibition of cultured cells
NCI-N87 (stomach) = test: Growth inhibition assay; type: cell-based; settings: Homo sapiens, NCI-N87, 72 h, read-out: IC50, growth inhibition of cultured cells
HT115 (colon) = test: Growth inhibition assay; type: cell-based; settings: Homo sapiens, HT115, 72 h, read-out: IC50, growth inhibition of cultured cells
MDA-MB-175VII (breast) = test: Growth inhibition assay; type: cell-based; settings: Homo sapiens, 72 h, read-out: IC50, growth inhibition of cultured cells
BT-474 (breast) = test: Growth inhibition assay; type: cell-based; settings: Homo sapiens, BT-474, 72 h, read-out: IC50, growth inhibition of cultured cells
serum albumin = serum albumin (Homo sapiens, UniProt P02768); settings: cited from earlier work
Sequence of serum albumin (P02768 25-609): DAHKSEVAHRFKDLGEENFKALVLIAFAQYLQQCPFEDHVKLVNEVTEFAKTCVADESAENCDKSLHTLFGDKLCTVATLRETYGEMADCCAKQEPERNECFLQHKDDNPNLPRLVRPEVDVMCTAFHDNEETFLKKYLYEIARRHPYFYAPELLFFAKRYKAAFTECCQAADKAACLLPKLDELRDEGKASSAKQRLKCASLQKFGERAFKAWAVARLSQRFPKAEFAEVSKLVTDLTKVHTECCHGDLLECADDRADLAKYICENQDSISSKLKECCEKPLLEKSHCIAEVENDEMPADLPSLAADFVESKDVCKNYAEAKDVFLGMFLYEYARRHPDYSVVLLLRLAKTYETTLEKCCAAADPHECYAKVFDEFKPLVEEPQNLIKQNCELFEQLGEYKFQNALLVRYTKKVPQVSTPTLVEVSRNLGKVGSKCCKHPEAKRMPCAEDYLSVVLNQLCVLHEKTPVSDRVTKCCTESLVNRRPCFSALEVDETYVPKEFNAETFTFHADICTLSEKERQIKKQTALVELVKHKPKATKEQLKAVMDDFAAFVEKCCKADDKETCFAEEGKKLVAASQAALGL

α1-acid glycoprotein = settings: cited from earlier work

With `CS(=O)(=O)CCNCc1ccc(-c2ccc3ncnc(Nc4ccc(OCc5cccc(F)c5)c(Cl)c4)c3c2)o1` [Lapatinib, N-{3-chloro-4-[(3-fluorobenzyl)oxy]phenyl}-6-[5-({[2-(methylsulfonyl)ethyl]amino}methyl)-2-furyl]-4-quinazolinamine] the “Clinically relevant dose in mice (assumed)” value [1] was “approximately 50 mg/kg”, the IC50 (SK-BR-3 (breast)) was 56.9 ± 5.4 nM and the Survival (BT-474 cells) was “not significant”. The “Human plasma AUC” value [2] was 14300 to 36200 ng·h/mL, the IC50 (MDA-MB-453 (breast)) was 170 ± 3 nM and the IC50 (MRC-5 (lung)) was 9140 ± 643 nM. The “Elevation of IC50 by addition of serum proteins” value (NCI-N87 cells) was 10.6–12.7 fold, the IC50 (Calu-3 (lung)) was 510 ± 85.8 nM and the IC50 (NCI-N87 (stomach)) was 36.4 ± 5.2 nM. The IC50 (HT115 (colon)) was 100 ± 1.5 nM, the IC50 (MDA-MB-175VII (breast)) was 70.2 ± 10.2 nM and the IC50 (BT-474 (breast)) was 29.4 ± 2.2 nM. The “Bound to serum albumin” value (serum albumin) was greater than 99% and the “Bound to α1-acid glycoprotein” value (α1-acid glycoprotein) was greater than 99%.
